# ChEMBL document CHEMBL1201862, “PubChem BioAssay data set” (2004)
#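 Growth conditions: 96-well plates. Treatment: test compound, 48 hours, 5 concentrations. Analysis: linear interpolation between bracketing concentrations; unreached endpoints set to highest concentration. At the GI50, growth is halved.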 Active and inactive are the calls of the source. Rule as the data show it: active = GI50 up to about 1.1 µM and inactive = higher.
# Tests used:
# Experiment in all cases: growth of human tumour cells (NCI), 48 h
# Malme-3M = tested on: Malme-3M
# BT-549 = tested on: BT-549
# HT-29 = tested on: HT-29
# SK-MEL-2 = tested on: SK-MEL-2
# MCF7 = tested on: MCF7
# Hs-578T = tested on: Hs-578T
# SNB-19 = tested on: SNB-19
# 786-0 = tested on: 786-0
# OVCAR-5 = tested on: OVCAR-5
# NCI-H460 = tested on: NCI-H460
# NCI-H23 = tested on: NCI-H23
# PC-3 = tested on: PC-3
# RPMI-8226 = tested on: RPMI-8226
# A498 = tested on: A498
# CCRF-CEM = tested on: CCRF-CEM
# MDA-N = tested on: MDA-N
# SR = tested on: SR
# K562 = tested on: K562
# KM12 = tested on: KM12
# SF-268 = tested on: SF-268
# HOP-92 = tested on: HOP-92
# LOX IMVI = tested on: LOX IMVI
# MDA-MB-231 = tested on: MDA-MB-231
# DU-145 = tested on: DU-145
# MOLT-4 = tested on: MOLT-4
# UO-31 = tested on: UO-31
# HCC 2998 = tested on: HCC 2998
# COLO 205 = tested on: COLO 205
# ACHN = tested on: ACHN
# SW-620 = tested on: SW-620
# U-251 = tested on: U-251
# SK-MEL-5 = tested on: SK-MEL-5
# TK-10 = tested on: TK-10
# NCI-H522 = tested on: NCI-H522
# CAKI-1 = tested on: CAKI-1
# OVCAR-3 = tested on: OVCAR-3
# UACC-62 = tested on: UACC-62
# HOP-62 = tested on: HOP-62
# RXF 393 = tested on: RXF 393
# HCT-15 = tested on: HCT-15
# NCI-H226 = tested on: NCI-H226
# HCT-116 = tested on: HCT-116
# SK-MEL-28 = tested on: SK-MEL-28
# EKVX = tested on: EKVX
# MDA-MB-435 = tested on: MDA-MB-435
# OVCAR-4 = tested on: OVCAR-4
# IGROV-1 = tested on: IGROV-1
# UACC-257 = tested on: UACC-257
# SN12C = tested on: SN12C
# HL-60 = tested on: HL-60
# SK-OV-3 = tested on: SK-OV-3
structure (smiles),measurement,setting,value
S=C(/N=c1/sc(Nc2ccccc2)nc2sc3c(c12)CCCC3)Nc1ccccc1,GI50,Malme-3M,> 62.5 µM (inactive)
same,GI50,BT-549,> 62.5 µM (inactive)
same,GI50,HT-29,> 62.5 µM (inactive)
same,GI50,SK-MEL-2,> 62.5 µM (inactive)
same,GI50,MCF7,> 62.5 µM (inactive)
same,GI50,Hs-578T,> 62.5 µM (inactive)
same,GI50,SNB-19,> 62.5 µM (inactive)
same,GI50,786-0,> 62.5 µM (inactive)
same,GI50,OVCAR-5,> 62.5 µM (inactive)
same,GI50,NCI-H460,> 62.5 µM (inactive)
same,GI50,NCI-H23,> 62.5 µM (inactive)
same,GI50,PC-3,> 62.5 µM (inactive)
same,GI50,RPMI-8226,62.2 µM (inactive)
same,GI50,A498,> 62.5 µM (inactive)
same,GI50,CCRF-CEM,> 62.5 µM (inactive)
same,GI50,MDA-N,> 62.5 µM (inactive)
same,GI50,SR,> 62.5 µM (inactive)
same,GI50,K562,> 62.5 µM (inactive)
same,GI50,KM12,> 62.5 µM (inactive)
same,GI50,SF-268,> 62.5 µM (inactive)
same,GI50,HOP-92,> 62.5 µM (inactive)
same,GI50,LOX IMVI,> 62.5 µM (inactive)
same,GI50,MDA-MB-231,> 62.5 µM (inactive)
same,GI50,DU-145,> 62.5 µM (inactive)
same,GI50,MOLT-4,> 62.5 µM (inactive)
same,GI50,UO-31,> 62.5 µM (inactive)
same,GI50,HCC 2998,> 62.5 µM (inactive)
same,GI50,COLO 205,> 62.5 µM (inactive)
same,GI50,ACHN,> 62.5 µM (inactive)
same,GI50,SW-620,> 62.5 µM (inactive)
same,GI50,U-251,> 62.5 µM (inactive)
same,GI50,SK-MEL-5,> 62.5 µM (inactive)
same,GI50,TK-10,> 62.5 µM (inactive)
same,GI50,NCI-H522,> 62.5 µM (inactive)
same,GI50,CAKI-1,> 62.5 µM (inactive)
same,GI50,OVCAR-3,> 62.5 µM (inactive)
same,GI50,UACC-62,> 62.5 µM (inactive)
same,GI50,HOP-62,> 62.5 µM (inactive)
same,GI50,RXF 393,> 62.5 µM (inactive)
same,GI50,HCT-15,> 62.5 µM
same,GI50,NCI-H226,> 62.5 µM (inactive)
same,GI50,HCT-116,> 62.5 µM (inactive)
same,GI50,SK-MEL-28,> 62.5 µM (inactive)
same,GI50,EKVX,> 62.5 µM (inactive)
same,GI50,MDA-MB-435,> 62.5 µM (inactive)
same,GI50,OVCAR-4,> 62.5 µM (inactive)
same,GI50,IGROV-1,> 62.5 µM (inactive)
same,GI50,UACC-257,> 62.5 µM (inactive)
same,GI50,SN12C,> 62.5 µM (inactive)
same,GI50,HL-60,> 62.5 µM (inactive)
same,GI50,SK-OV-3,> 62.5 µM (inactive)
